Laboratory results: PubChem BioAssay AID1259407 (Chemical Carcinogenesis Research Information System (CCRIS), 2018)
The source made the active and inactive calls. How the calls were made is not given here.

System: CCRIS mutagenicity, Ames/micronucleus/aberration tests
Assay: CCRIS mutagenicity studies
[1] = Test System: AMES SALMONELLA TYPHIMURIUM, Strain/Indicator: TA98, Metabolic Activation: NONE, Method: PREINCUBATION
[2] = Test System: AMES SALMONELLA TYPHIMURIUM, Strain/Indicator: TA100, Metabolic Activation: NONE, Method: PREINCUBATION
[3] = Test System: AMES SALMONELLA TYPHIMURIUM, Strain/Indicator: TA1535, Metabolic Activation: NONE, Method: PREINCUBATION
[4] = Test System: AMES SALMONELLA TYPHIMURIUM, Strain/Indicator: TA1537, Metabolic Activation: NONE, Method: PREINCUBATION

Measured: mutagenic call

O=C(O)c1ccccc1Cl
inactive: Test System: AMES SALMONELLA TYPHIMURIUM, Strain/Indicator: TA97, Metabolic Activation: HAMSTER, LIVER, S-9, AROCLOR 1254 (10 OR 30%), Method: PREINCUBATION inactive; negative | Test System: AMES SALMONELLA TYPHIMURIUM, Strain/Indicator: TA97, Metabolic Activation: NONE, Method: PREINCUBATION inactive; negative | Test System: AMES SALMONELLA TYPHIMURIUM, Strain/Indicator: TA97, Metabolic Activation: RAT, LIVER, S-9, AROCLOR 1254 (10 OR 30%), Method: PREINCUBATION inactive; negative | Test System: AMES SALMONELLA TYPHIMURIUM, Strain/Indicator: TA98, Metabolic Activation: HAMSTER, LIVER, S-9, AROCLOR 1254 (10 OR 30%), Method: PREINCUBATION inactive; negative | [1] inactive; negative | Test System: AMES SALMONELLA TYPHIMURIUM, Strain/Indicator: TA98, Metabolic Activation: RAT LIVER S-9, PCB, Method: PREINCUBATION inactive; negative | Test System: AMES SALMONELLA TYPHIMURIUM, Strain/Indicator: TA98, Metabolic Activation: RAT LIVER S-9, PHENOBARBITAL AND BETA-NAPHTHOFLAVONE, Method: PREINCUBATION inactive; negative | Test System: AMES SALMONELLA TYPHIMURIUM, Strain/Indicator: TA98, Metabolic Activation: RAT, LIVER, S-9, AROCLOR 1254 (10 OR 30%), Method: PREINCUBATION inactive; negative | Test System: AMES SALMONELLA TYPHIMURIUM, Strain/Indicator: TA100, Metabolic Activation: HAMSTER, LIVER, S-9, AROCLOR 1254 (10 OR 30%), Method: PREINCUBATION inactive; negative | [2] inactive; negative | Test System: AMES SALMONELLA TYPHIMURIUM, Strain/Indicator: TA100, Metabolic Activation: RAT LIVER S-9, PCB, Method: PREINCUBATION inactive; negative | Test System: AMES SALMONELLA TYPHIMURIUM, Strain/Indicator: TA100, Metabolic Activation: RAT LIVER S-9, PHENOBARBITAL AND BETA-NAPHTHOFLAVONE, Method: PREINCUBATION inactive; negative | Test System: AMES SALMONELLA TYPHIMURIUM, Strain/Indicator: TA100, Metabolic Activation: RAT, LIVER, S-9, AROCLOR 1254 (10 OR 30%), Method: PREINCUBATION inactive; negative | Test System: AMES SALMONELLA TYPHIMURIUM, Strain/Indicator: TA104, Metabolic Activation: NONE, Method: PREINCUBATION inactive; negative | Test System: AMES SALMONELLA TYPHIMURIUM, Strain/Indicator: TA104, Metabolic Activation: RAT LIVER S-9, PCB, Method: PREINCUBATION inactive; negative | Test System: AMES SALMONELLA TYPHIMURIUM, Strain/Indicator: TA1535, Metabolic Activation: HAMSTER, LIVER, S-9, AROCLOR 1254 (10 OR 30%), Method: PREINCUBATION inactive; negative | [3] inactive; negative | Test System: AMES SALMONELLA TYPHIMURIUM, Strain/Indicator: TA1535, Metabolic Activation: RAT LIVER S-9, PHENOBARBITAL AND BETA-NAPHTHOFLAVONE, Method: PREINCUBATION inactive; negative | Test System: AMES SALMONELLA TYPHIMURIUM, Strain/Indicator: TA1535, Metabolic Activation: RAT, LIVER, S-9, AROCLOR 1254 (10 OR 30%), Method: PREINCUBATION inactive; negative | Test System: AMES SALMONELLA TYPHIMURIUM, Strain/Indicator: TA1537, Metabolic Activation: HAMSTER, LIVER, S-9, AROCLOR 1254 (30%), Method: PREINCUBATION inactive; negative | [4] inactive; negative | Test System: AMES SALMONELLA TYPHIMURIUM, Strain/Indicator: TA1537, Metabolic Activation: RAT LIVER S-9, PHENOBARBITAL AND BETA-NAPHTHOFLAVONE, Method: PREINCUBATION inactive; negative | Test System: AMES SALMONELLA TYPHIMURIUM, Strain/Indicator: TA1537, Metabolic Activation: RAT, LIVER, S-9, AROCLOR 1254 (30%), Method: PREINCUBATION inactive; negative | Test System: AMES SALMONELLA TYPHIMURIUM, Strain/Indicator: TA1538, Metabolic Activation: NONE, Method: PREINCUBATION inactive; negative | Test System: AMES SALMONELLA TYPHIMURIUM, Strain/Indicator: TA1538, Metabolic Activation: RAT LIVER S-9, PHENOBARBITAL AND BETA-NAPHTHOFLAVONE, Method: PREINCUBATION inactive; negative | Test System: E.COLI, Strain/Indicator: WP2 UVRA, Metabolic Activation: NONE, Method: PREINCUBATION inactive; negative | Test System: E.COLI, Strain/Indicator: WP2UVRA, Metabolic Activation: NONE, Method: PREINCUBATION inactive; negative | Test System: E.COLI, Strain/Indicator: WP2 UVRA, Metabolic Activation: RAT LIVER S-9, PCB, Method: PREINCUBATION inactive; negative | Test System: E.COLI, Strain/Indicator: WP2UVRA, Metabolic Activation: RAT LIVER S-9, PHENOBARBITAL AND BETA-NAPHTHOFLAVONE, Method: PREINCUBATION inactive; negative

FC(Cl)(Cl)Cl
inactive: Test System: AMES SALMONELLA TYPHIMURIUM, Strain/Indicator: TA98, Metabolic Activation: HAMSTER, LIVER, S-9, AROCLOR 1254 (10%), Method: PREINCUBATION inactive; negative | Test System: AMES SALMONELLA TYPHIMURIUM, Strain/Indicator: TA98, Metabolic Activation: NONE, Method: GAS EXPOSURE inactive; negative | [1] inactive; negative | Test System: AMES SALMONELLA TYPHIMURIUM, Strain/Indicator: TA98, Metabolic Activation: RAT LIVER S-9, PHENOBARBITAL AND BETA-NAPHTHOFLAVONE (40%), Method: GAS EXPOSURE inactive; negative | Test System: AMES SALMONELLA TYPHIMURIUM, Strain/Indicator: TA98, Metabolic Activation: RAT, LIVER, S-9, AROCLOR 1254 (10%), Method: PREINCUBATION inactive; negative | Test System: AMES SALMONELLA TYPHIMURIUM, Strain/Indicator: TA100, Metabolic Activation: HAMSTER, LIVER, S-9, AROCLOR 1254 (10%), Method: PREINCUBATION inactive; negative | Test System: AMES SALMONELLA TYPHIMURIUM, Strain/Indicator: TA100, Metabolic Activation: NONE, Method: GAS EXPOSURE inactive; negative | [2] inactive; negative | Test System: AMES SALMONELLA TYPHIMURIUM, Strain/Indicator: TA100, Metabolic Activation: RAT LIVER S-9, PHENOBARBITAL AND BETA-NAPHTHOFLAVONE (40%), Method: GAS EXPOSURE inactive; negative | Test System: AMES SALMONELLA TYPHIMURIUM, Strain/Indicator: TA100, Metabolic Activation: RAT, LIVER, S-9, AROCLOR 1254 (10%), Method: PREINCUBATION inactive; negative | Test System: AMES SALMONELLA TYPHIMURIUM, Strain/Indicator: TA1535, Metabolic Activation: HAMSTER, LIVER, S-9, AROCLOR 1254 (10%), Method: PREINCUBATION inactive; negative | Test System: AMES SALMONELLA TYPHIMURIUM, Strain/Indicator: TA1535, Metabolic Activation: NONE, Method: GAS EXPOSURE inactive; negative | [3] inactive; negative | Test System: AMES SALMONELLA TYPHIMURIUM, Strain/Indicator: TA1535, Metabolic Activation: RAT LIVER S-9, PHENOBARBITAL AND BETA-NAPHTHOFLAVONE (40%), Method: GAS EXPOSURE inactive; negative | Test System: AMES SALMONELLA TYPHIMURIUM, Strain/Indicator: TA1535, Metabolic Activation: RAT, LIVER, S-9, AROCLOR 1254 (10%), Method: PREINCUBATION inactive; negative | Test System: AMES SALMONELLA TYPHIMURIUM, Strain/Indicator: TA1537, Metabolic Activation: HAMSTER, LIVER, S-9, AROCLOR 1254 (10%), Method: PREINCUBATION inactive; negative | Test System: AMES SALMONELLA TYPHIMURIUM, Strain/Indicator: TA1537, Metabolic Activation: NONE, Method: GAS EXPOSURE inactive; negative | [4] inactive; negative | Test System: AMES SALMONELLA TYPHIMURIUM, Strain/Indicator: TA1537, Metabolic Activation: RAT LIVER S-9, PHENOBARBITAL AND BETA-NAPHTHOFLAVONE (40%), Method: GAS EXPOSURE inactive; negative | Test System: AMES SALMONELLA TYPHIMURIUM, Strain/Indicator: TA1537, Metabolic Activation: RAT, LIVER, S-9, AROCLOR 1254 (10%), Method: PREINCUBATION inactive; negative | Test System: E.COLI, Strain/Indicator: WP2UVRA, Metabolic Activation: NONE, Method: GAS EXPOSURE inactive; negative | Test System: E.COLI, Strain/Indicator: WP2UVRA, Metabolic Activation: RAT LIVER S-9, PHENOBARBITAL AND BETA-NAPHTHOFLAVONE (40%), Method: GAS EXPOSURE inactive; negative | Test System: Mouse lymphoma, Strain/Indicator: L5178Y (tk+/tk-), Metabolic Activation: None, Method: Suspension/plate inactive; negative | Test System: Mouse lymphoma, Strain/Indicator: L5178Y (tk+/tk-), Metabolic Activation: Rat, Liver, S-9, Aroclor 1254, Method: Suspension/plate inactive; inconclusive (previous evaluation negative)
